{
  "source": "patent US20040087539A1",
  "about": "“Method of treating conditions related to platelet activity” (priority 2003, published 2004)",
  "key": {"[1]": {"test_system": "CHO cells expressing human platelet receptors", "assay": "Cell adhesion to immobilized vWF under flow", "assay_type": "cell-based, Chinese Hamster", "settings": "FIG. 2C; sildenafil 5 μM, RGDS 4 mM; 8-bromo-cGMP not shown", "protocol": "CHO cells expressing human platelet receptors were resuspended in modified Tyrode's buffer, pH 7.4, containing 1 mg/mi of bovine serum albumin (BSA) (see Ref. 46), and final cell count was 5×10^5/ml. […] Purified human vWF (10 μg/ml in 0.1 M NaHCO3, pH 8.3) was added to glass microcapillary tubes (inner diameter of 1.33 mm and a length of 7.2 cm), and incubated at 4° C. for 20 h. The vWF-coated microcapillary tubes then were incubated with 5% BSA. After washing, the cell suspension was aspirated through the tube by a syringe pump (Harvard Apparatus Inc.) at desired shear rates for 1.2 minutes and washed with modified Tyrode's buffer for additional 10 minutes at the same shear rates to remove transiently adherent cells. The experiments were continuously recorded on videotape using a video cassette recorder (model 9500, Sony). The number of stably adherent cell on immobilized vWF was counted on images obtained at 20 randomly selected positions in the vWF-coated tubes.\nIn FIGS. 2A and B, vWF-coated capillary tubes were perfused with equivalent numbers (5×10^5/ml) of CHO cells expressing recombinant GPLb-JX alone (1b9), integrin αIIbβ3 alone (2b3a), both GPIb-IX and integrin αIIbβ3 (123) or expressing GPJb-JX, integrin α^IIbβ3 and PKG Ia (123PKG) at a shear rates of 800 s^−1 (A) or 1500 s^−1 (B) for 1.2 minutes, and then perfused with the modified Tyrodes buffer for 10 minutes at the same shear rates to wash out transient adherent cells. The expenments were recorded in real time. Cells stably adherent to vWF-coated capillary tubes at 20 randomly selected locations were counted.\nIn FIG. 2C, vector-transfected 123 cells (123) or 123PKG cells also was perfused into vWF-coated glass capillary tubes as described in FIG. 2A in the absence or presence (+RGDS) of an integrin inhibitor RGDS peptide (4 mM) and in the absence (Control) or presence of cGMP-enhancing drug, sildenafil (5 μM). […] The experiments were repeated at least three times."}, "[2]": {"test_system": "123 cells (CHO cells expressing recombinant human GPIb-IX and integrin αIIbβ3)", "assay": "vWF-induced GPIb-IX-mediated activation of integrin αIIbβ3 (Oregon green-labeled fibrinogen binding, flow cytometry)", "assay_type": "cell-based, Chinese Hamster", "settings": "PKG-transfected 123 cells, 12 μg/ml vWF, 1 mg/ml ristocetin, FIGS. 1B, 1C", "protocol": "Human PKG Iβ cDNA was cloned by RT-PCR, using human platelet mRNA as templates. Sequence of the human PKG Iβ cDNA fragment matches the published sequence. Cloning of human PKG Iα cDNA was described previously. PKG Iα or Iβ in pCDNA3.1/Zeo+vector was transfected into 123 cells (CHO cells expressing recombinant human CPIb-IX and integrin αIIbβ3 using Lipofectamine plus (BRL). Expression of PKG was assessed by Western blotting with an antihuman PKG I antibody (Calbiochem). The kinase activity of the expressed enzymes was measured in cell homogenates using BPDEtide (Calbiochem) as substrate as detailed previously. vWF-induced GPIb-IX-mediated activation of integrin αIIbβ3 was examined by flow cytometry analysis of Oregon green-labeled fibrinogen binding to integrln αIIbβ3 as described previously. Briefly, cells were detached from tissue culture plate using 0.5 mM EDTA, washed at 4° C. and resuspended in modified Tyrode's solution. Cells then were incubated with Oregon green-labeled fibrinogen (20 μg/ml) in the presence of ristocetin and vWF at 22° C. for 30 minutes, and analyzed by FACScalibur flow cytometer. Nonspecific binding of fibrinogen was estimated by measuring fibrinogon binding in the presence of a specific integrin inhibitor RGDS (1 mM) (see Refs. 13 and 43-45).\nIn FIG. 1A, CHO cells expressing GPLb-JX and integrin αIIbβ3 (123 cells) were transfected with cDNA encoding PKGIα or vector. Expression of PKG Ia in 123 cells was detected by Western blotting with an anti-human PKG I antibody (Insert), and recombinant PKG activity was determined in the absence or presence of 20 μM 8-bromo-cGMP as previously described. Results are expressed as mean +SD (n=3). For FIGS. 1B and 1C, reconstitution of GPIb-IX-mediated integrin activation in CHO cells was published (see Ref. 13). […] Cells were analyzed by flow cytometry. Quantitative results from three experiments are expressed as fibrinogen binding indices (total bound fluorescence (Fg)/nonspecifically bound fluorescence (Fg+RGDS)), and shown in FIG. 1B (mean ±SD)."}},
  "data": [
    {"smiles": "Nc1nc2c(nc(Br)n2[C@@H]2O[C@@H]3COP(=O)(O)O[C@H]3[C@H]2O)c(=O)[nH]1", "note": "[8-bromo-cGMP]", "values": [
      {"measurement": "stable adhesion of PKG-expressing 123 cells (123PKG) to vWF under flow", "setting": "[1]", "value": "enhanced"},
      {"measurement": "vWF-induced fibrinogen binding to integrin", "setting": "[2]", "value": "further increased"},
      {"measurement": "vWF-induced fibrinogen binding to integrin", "setting": "[2]; row", "value": "dramatically increased"}
    ]}
  ]
}
